“Also recorded” adds a separate entry of the source.
Tests used:
DPP4 [1] = molecular target: T1, DPP4 (Homo sapiens, UniProt P27487); experiment: Sensitivity to DPP4: overnight incubation with recombinant DPP4 or vehicle, then receptor agonist bioassay; settings: for DPP4 degradation / resistance (in words): overnight incubation with or without DPP4, readout at cognate receptor
Method: Plotting concentration versus the luciferase activity yielded quantitative parameters for combined binding (potency) and signaling (efficacy) in a single step. […] DPP4 treated peptides: 10 μl of 0.26 mM peptide were incubated with 2 μL DPP4 in buffer ±DMSO for 18 hrs. Control peptides: 10 μl of 0.26 mM peptide was added to buffer ±DMSO. The final DMSO concentration was the same for all peptides and all peptides were diluted to 0.26 mM concentrations for the DPP4 assay.
Compounds are incubated overnight at 37° C. in the presence of recombinant DPP4 or vehicle (TRIS buffer). The samples are then assessed in GLP-1R agonist assays.
Compounds were incubated overnight at 37° C. in the presence of recombinant DPP4 or vehicle (TRIS buffer, pH 8.0). The samples were then assessed in GLP1R agonist assays as described elsewhere herein.

DPP4 [2] = molecular target: T1, DPP4; experiment: DPP4 degradation of GLP-2 peptides: incubation with recombinant DPP4, then GLP-2R reporter assay; settings: GLP-2R readout
Method: Peptides were incubated with vehicle or recombinant DPP4. Serial dilutions of GLP2-1 and GLP2-4 were then applied to HEK293 cells, which had been transfected with cDNA encoding human GLP-2R and a cAMP-responsive reporter gene.
Peptides were incubated with recombinant DPP4. Serial dilutions of GLP-2 and GLP2-4 were then applied to HEK293 cells, which had been transfected with cDNA encoding human GLP-2R and a cAMP-responsive reporter gene. […] N=4, mean+SEM.
DPP4 resistance (FIG. 13): Lipidated peptides are compared with the prototype, F-GLP2-palm. After an overnight incubation (16 hrs) in the presence vs. the absence of DPP4, receptor mediated function is assessed as shown elsewhere herein. As a DPP4 susceptible control, parallel experiments are done using GLP-2. […] Following overnight preincubation, serial dilutions of ligands were prepared and added to GLP-2R expressing cells for 4 hours. A luciferase reporter gene assay was used to monitor Gαs coupled second messenger signaling.

T1 sequence (P27487 whole entry, species assumed): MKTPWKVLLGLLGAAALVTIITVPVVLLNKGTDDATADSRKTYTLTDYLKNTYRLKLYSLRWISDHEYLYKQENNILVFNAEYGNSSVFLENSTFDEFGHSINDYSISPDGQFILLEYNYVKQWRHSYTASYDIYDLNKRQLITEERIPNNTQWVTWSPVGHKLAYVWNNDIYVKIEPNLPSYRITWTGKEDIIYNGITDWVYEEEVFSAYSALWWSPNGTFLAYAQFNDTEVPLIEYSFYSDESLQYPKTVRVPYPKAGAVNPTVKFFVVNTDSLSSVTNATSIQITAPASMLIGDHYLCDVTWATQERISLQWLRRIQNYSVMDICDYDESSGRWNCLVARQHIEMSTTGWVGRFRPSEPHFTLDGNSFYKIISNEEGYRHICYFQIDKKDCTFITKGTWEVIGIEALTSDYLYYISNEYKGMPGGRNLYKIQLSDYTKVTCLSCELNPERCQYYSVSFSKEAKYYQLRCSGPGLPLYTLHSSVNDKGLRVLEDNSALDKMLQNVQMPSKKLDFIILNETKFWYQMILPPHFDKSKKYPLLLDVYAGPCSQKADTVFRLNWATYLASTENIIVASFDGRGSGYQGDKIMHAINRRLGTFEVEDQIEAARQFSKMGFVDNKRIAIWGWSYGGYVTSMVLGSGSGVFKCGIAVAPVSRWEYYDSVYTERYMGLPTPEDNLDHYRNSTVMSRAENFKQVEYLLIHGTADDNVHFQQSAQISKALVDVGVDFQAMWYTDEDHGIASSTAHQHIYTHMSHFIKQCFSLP

| Compound | DPP4 degradation / resistance (in words) (DPP4 [1]) | other results |
| --- | --- | --- |
| CC[C@H](C)[C@H](NC(=O)[C@H](Cc1ccccc1)NC(=O)[C@H](CCC(=O)O)NC(=O)[C@H](CCCCN)NC(=O)[C@H](C)NC(=O)[C@H](C)NC(=O)[C@H](CCC(N)=O)NC(=O)CNC(=O)[C@H](CCC(=O)O)NC(=O)[C@H](CC(C)C)NC(=O)[C@H](Cc1ccc(O)cc1)NC(=O)[C@H](CO)NC(=O)[C@H](CO)NC(=O)[C@@H](NC(=O)[C@H](CC(=O)O)NC(=O)[C@H](CO)NC(=O)[C@@H](NC(=O)[C@H](Cc1ccccc1)NC(=O)[C@@H](NC(=O)CNC(=O)[C@H](CCC(=O)O)NC(=O)[C@H](C)NC(=O)[C@H](Cc1c[nH]cn1)NCC(C)C)[C@@H](C)O)[C@@H](C)O)C(C)C)C(=O)N[C@@H](C)C(=O)N[C@@H](Cc1c[nH]c2ccccc12)C(=O)N[C@@H](CC(C)C)C(=O)N[C@H](C(=O)N[C@@H](CCCCN)C(=O)NCC(=O)N[C@@H](CCCNC(=N)N)C(N)=O)C(C)C [G-6, isobutyl GLP-1] | virtually complete DPP4 resistance |  |
| CC[C@H](C)[C@H](NC(=O)[C@H](C)NC(=O)[C@H](CC(=O)O)NC(=O)[C@H](C)NC(=O)[C@H](Cc1ccc(O)cc1)NCC(F)(F)F)C(=O)N[C@@H](Cc1ccccc1)C(=O)N[C@H](C(=O)N[C@@H](CC(N)=O)C(=O)N[C@@H](CO)C(=O)N[C@@H](Cc1ccc(O)cc1)C(=O)N[C@@H](CCCNC(=N)N)C(=O)N[C@@H](CCCCN)C(=O)N[C@H](C(=O)N[C@@H](CC(C)C)C(=O)NCC(=O)N[C@@H](CCC(N)=O)C(=O)N[C@@H](CC(C)C)C(=O)N[C@@H](CO)C(=O)N[C@@H](C)C(=O)N[C@@H](CCCNC(=N)N)C(=O)N[C@@H](CCCCN)C(=O)N[C@@H](CC(C)C)C(=O)N[C@@H](CC(C)C)C(=O)N[C@@H](CCC(N)=O)C(=O)N[C@@H](CC(=O)O)C(=O)N[C@H](C(=O)N[C@@H](CCSC)C(=O)N[C@@H](CO)C(=O)N[C@@H](CCCNC(=N)N)C(N)=O)[C@@H](C)CC)C(C)C)[C@@H](C)O [GH29-4] | resistant to enzyme induced potency loss |  |
| CC[C@H](C)[C@H](NC(=O)[C@H](Cc1ccccc1)NC(=O)[C@H](CC(=O)O)NC(=O)[C@H](CCCNC(=N)N)NC(=O)[C@H](C)NC(=O)[C@H](C)NC(=O)[C@H](CC(C)C)NC(=O)[C@H](CC(N)=O)NC(=O)[C@H](CC(=O)O)NC(=O)[C@H](CC(C)C)NC(=O)[C@@H](NC(=O)[C@@H](NC(=O)[C@H](CC(N)=O)NC(=O)[C@H](CCSC)NC(=O)[C@H](CCC(=O)O)NC(=O)[C@H](CC(=O)O)NC(=O)[C@H](CO)NC(=O)[C@H](Cc1ccccc1)NC(=O)[C@H](CO)NC(=O)CNC(=O)[C@H](CC(=O)O)NC(=O)[C@H](C)NC(=O)[C@H](Cc1c[nH]cn1)NCC(F)(F)F)[C@@H](C)O)[C@@H](C)CC)C(=O)N[C@@H](CC(N)=O)C(=O)N[C@@H](Cc1c[nH]c2ccccc12)C(=O)N[C@@H](CC(C)C)C(=O)N[C@H](C(=O)N[C@@H](CCC(N)=O)C(=O)N[C@H](C(=O)N[C@@H](CCCCN)C(=O)N[C@H](C(=O)N[C@H](C(=O)N[C@@H](CC(=O)O)C(=O)O)[C@@H](C)O)[C@@H](C)CC)[C@@H](C)O)[C@@H](C)CC [GLP2-4] |  | DPP4 degradation / resistance (in words) (DPP4 [2]): no potency loss; also recorded: completely resistant to degradation; DPP4 degradation / resistance (in words) (DPP4 [2]; listed as GLP-2-4): no potency loss |
| CC[C@H](C)[C@H](NC(=O)[C@H](Cc1ccccc1)NC(=O)[C@H](CCC(=O)O)NC(=O)[C@H](CCCCN)NC(=O)[C@H](C)NC(=O)[C@H](C)NC(=O)[C@H](CCC(N)=O)NC(=O)CNC(=O)[C@H](CCC(=O)O)NC(=O)[C@H](CC(C)C)NC(=O)[C@H](Cc1ccc(O)cc1)NC(=O)[C@H](CO)NC(=O)[C@H](CO)NC(=O)[C@@H](NC(=O)[C@H](CC(=O)O)NC(=O)[C@H](CO)NC(=O)[C@@H](NC(=O)[C@H](Cc1ccccc1)NC(=O)[C@@H](NC(=O)CNC(=O)[C@H](CCC(=O)O)NC(=O)[C@H](C)NC(=O)[C@H](Cc1c[nH]cn1)NC(C)=O)[C@@H](C)O)[C@@H](C)O)C(C)C)C(=O)N[C@@H](C)C(=O)N[C@@H](Cc1c[nH]c2ccccc12)C(=O)N[C@@H](CC(C)C)C(=O)N[C@H](C(=O)N[C@@H](CCCCN)C(=O)NCC(=O)N[C@@H](CCCNC(=N)N)C(N)=O)C(C)C [GLP-1b] | stability against DPP4 |  |
| CC[C@H](C)[C@H](NC(=O)[C@H](Cc1ccccc1)NC(=O)[C@H](CCC(=O)O)NC(=O)[C@H](CCCCN)NC(=O)[C@H](C)NC(=O)[C@H](C)NC(=O)[C@H](CCC(N)=O)NC(=O)CNC(=O)[C@H](CCC(=O)O)NC(=O)[C@H](CC(C)C)NC(=O)[C@H](Cc1ccc(O)cc1)NC(=O)[C@H](CO)NC(=O)[C@H](CO)NC(=O)[C@@H](NC(=O)[C@H](CC(=O)O)NC(=O)[C@H](CO)NC(=O)[C@@H](NC(=O)[C@H](Cc1ccccc1)NC(=O)[C@@H](NC(=O)CNC(=O)[C@H](CCC(=O)O)NC(=O)[C@H](C)NC(=O)[C@H](Cc1c[nH]cn1)NCc1ccccc1)[C@@H](C)O)[C@@H](C)O)C(C)C)C(=O)N[C@@H](C)C(=O)N[C@@H](Cc1c[nH]c2ccccc12)C(=O)N[C@@H](CC(C)C)C(=O)N[C@H](C(=O)N[C@@H](CCCCN)C(=O)NCC(=O)N[C@@H](CCCNC(=N)N)C(N)=O)C(C)C [benzyl] | virtually complete DPP4 resistance |  |
| CCCCCCCCCCCCCCCC(=O)N[C@@H](CCC(=O)NCCCC[C@H](NC(=O)[C@H](C)NC(=O)[C@H](C)NC(=O)[C@H](CCC(N)=O)NC(=O)CNC(=O)[C@H](CCC(=O)O)NC(=O)[C@H](CC(C)C)NC(=O)[C@H](Cc1ccc(O)cc1)NC(=O)[C@H](CO)NC(=O)[C@H](CO)NC(=O)[C@@H](NC(=O)[C@H](CC(=O)O)NC(=O)[C@H](CO)NC(=O)[C@@H](NC(=O)[C@H](Cc1ccccc1)NC(=O)[C@@H](NC(=O)CNC(=O)[C@H](CCC(=O)O)NC(=O)[C@H](C)NC(=O)[C@@H](N)Cc1cnc[nH]1)[C@@H](C)O)[C@@H](C)O)C(C)C)C(=O)N[C@@H](CCC(=O)O)C(=O)N[C@@H](Cc1ccccc1)C(=O)N[C@H](C(=O)N[C@@H](C)C(=O)N[C@@H](Cc1c[nH]c2ccccc12)C(=O)N[C@@H](CC(C)C)C(=O)N[C@H](C(=O)N[C@@H](CCCNC(=N)N)C(=O)NCC(=O)N[C@@H](CCCNC(=N)N)C(=O)NCC(=O)O)C(C)C)[C@@H](C)CC)C(=O)O [liraglutide] |  | potency loss after incubation with DPP4 (DPP4 [1]; overnight incubation with the enzyme, GLP-1R readout): > 50 fold |
| Glucagon | degraded by DPP4 |  |
